Measurements taken from patent US8093288B2, “Genipin derivatives and uses thereof” (Beth Israel Deaconess Medical Center, priority 2003, dated 2012).

Columns and labels:
UCP2 KO mice = assay: Serum insulin in vivo after genipin injection in UCP2 KO mice; settings: genipin 10 mg/kg injected, FIGS. 13A, 13B
Experimental: UCP2-deficient mice have increased serum insulin levels. Genipin inhibits UCP2 activity, and thus should stimulate insulin secretion acutely in vivo. In the present study, the effect of genipin on insulin secretion in vivo was assessed. WT and UCP2 KO mice were fed a chow diet (FIG. 13A), or placed on a high fat diet (HFD) (FIG. 13B) (#D12331, obtained from Research Diets Inc., New Brunswick, N.J.). The fat source was coconut oil and comprised 58% of the total calories. The mice remained on the HFD for 24 weeks. Both WT and KO mice were obese (50-60 g). ob/ob mice (FIG. 13C) were obtained from The Jackson Laboratory. After 6 hours (FIG. 13A) or 20 hours (FIGS. 13B and 13C) of fasting, genipin (10 mg/kg (FIGS. 13A and 13B), or 20 mg/kg (FIG. 13C)) was injected into the mice. Serum insulin levels were measured before and after administration of genipin as indicated.

[1] = system: kidney mitochondria of UCP2 knockout mice; assay: Proton leak titration in isolated kidney mitochondria of UCP2 knockout mice with superoxide-generating system; format: biochemical; settings: 50 μM genipin with 50 mM xanthine and 0.2 mU/3.5 mL xanthine oxidase, FIG. 3
Experimental: FIG. 3 is a graph showing the effect of genipin on superoxide-activated, UCP2-dependent proton leak in isolated kidney mitochondria of UCP2 knockout mice. Proton leak titration was performed in the presence of a superoxide-generating system (xanthine plus xanthine oxidase) essentially as described (Echtay et al. 2002, Nature 415, 96-99). Graphs show the rate of proton leak as a function of its driving force, mitochondrial membrane potential. ♦, control; ▪, xanthine (50 mM) plus xanthine oxidase (0.2mU/3.5 ml). Δ, xanthine/xanthine oxidase plus 50 μM genipin. Mitochondria were incubated with genipin in the oxygen electrode for 5 minutes before xanthine oxidase was added (to initiate the generation of superoxide). Western-blot analysis confirmed that there was no UCP2 protein in mitochondria from UCP2 knockout mice. Data are means +/−S.E.M. of four independent experiments.
Wildtype and UCP2 knockout mice were used for isolation of kidney mitochondria. Fresh tissues were minced in ice-cold STE buffer (250 mM sucrose, 5 mM Tris, 2 mM EGTA, pH 7.4 at 4° C.), and disrupted in a Dounce homogenizer. Cell debris was removed by centrifugation of the homogenate at 500×g for 3 min. The supernatant was centrifuged at 10,000×g for 8 min., and the mitochondrial pellet was resuspended in ice-cold STE buffer. Mitochondria were subjected to another cycle of centrifugation at 750 and 10,000×g. […]

[2] = system: high fat diet-fed UCP2 knockout mice; assay: Blood glucose and insulin after genipin injection in high fat diet-fed UCP2 knockout mice; format: in vivo; settings: high fat diet 24 weeks, 20 hours fasting, 300 μg genipin injected, thirty minutes after injection
Experimental: Wildtype and UCP2 knockout mice were placed on a high fat diet obtained from Research Diets Inc., New Brunswick, N.J. (cat. no. D12331, HFD). The fat source was coconut oil and comprised 58% of the total calories. The mice remained on the high fat diet for 24 weeks. After the 24 weeks, both the wildtype and the UCP2 knockout mice were obese (about 50-60 g). After 20 hours of fasting, the blood glucose and insulin levels of the mice were measured, then the mice were injected with 300 μg of genipin. Thirty minutes after injection the blood glucose and insulin levels of the mice were measured again. Blood glucose levels were assessed using a glucometer (One touch, Lifescan, Milpitas, Calif.). Serum insulin concentrations were assessed using mouse insulin as a standard (Rat Insulin ELISA Kit. cat. #INSKR020 Crystal Chem. Inc., Chicago, Ill.). […] A comparison of the effect of genipin on the blood glucose levels and insulin levels in wildtype and UCP2 knockout mice can be seen in FIGS. 7 and 10, respectively.

COC(=O)C1=CO[C@@H](O)[C@@H]2C(CO)=CC[C@H]12 [genipin]
serum insulin levels (UCP2 KO mice): no effect on insulin levels | rate of proton leak as a function of mitochondrial membrane potential [1]: proton leak occurred at approximately the same membrane potential as that observed for kidney mitochondria from UCP2 knockout mice exposed to the superoxide-generating system alone | blood glucose levels ([2]; FIG. 6): little effect | insulin levels ([2]; FIG. 9): little effect
